Tests used:
[1] = tested on: SK-OV-3; experiment: Antiproliferative activity against human SK-OV-3 cells assessed as suppression ratio at 5 uM by enzyme-linked immunosorbent assay relative to control; format: functional
[2] = tested on: U-87 MG; experiment: Antiproliferative activity against human U-87 MG cells assessed as suppression ratio at 50 uM by enzyme-linked immunosorbent assay relative to control; format: functional, U-87MG ATCC
[3] = tested on: U-87 MG; experiment: Antiproliferative activity against human U-87 MG cells assessed as suppression ratio at 5 uM by enzyme-linked immunosorbent assay relative to control; format: functional, U-87MG ATCC
[4] = tested on: SK-OV-3; experiment: Antiproliferative activity against human SK-OV-3 cells assessed as suppression ratio at 50 uM by enzyme-linked immunosorbent assay relative to control; format: functional
[5] = tested on: U-87 MG; experiment: Anti-tumor activity against human U87 MG cells assessed as inhibition rate at 140 uM by CCK-8 assay relative to control; format: functional, U-87MG ATCC
[6] = tested on: SK-OV-3; experiment: Anti-tumor activity against human SK-OV-3 cells by CCK-8 assay; format: functional, cell-based
[7] = tested on: U-87 MG; experiment: Anti-tumor activity against human U87 MG cells by CCK-8 assay; format: functional, cell-based, U-87MG ATCC
[8] = tested on: SK-OV-3; experiment: Anti-tumor activity against human SK-OV-3 cells assessed as inhibition rate at 140 uM by CCK-8 assay relative to control; format: functional

Row | SMILES | inhibition at 5 µM [1] [%] | inhibition at 50 µM [2] [%] | inhibition at 5 µM [3] [%] | inhibition at 50 µM [4] [%] | inhibition at 140 µM [5] [%] | IC50 [6] [µM] | IC50 [7] [µM] | inhibition at 140 µM [8] [%]
1 | CC(C)n1cnc([N+](=O)[O-])c1COP(=O)(NCCCl)NCCCl | 11 | 10 | 12 | 16 | – | – | – | –
2 | CCCn1c(COP(=O)(NCCBr)NCCBr)cnc1[N+](=O)[O-] | -2 | 69 | 30 | 77 | 90 | 42 | 47 | 90
3 | CCCn1cnc([N+](=O)[O-])c1COP(=O)(NCCCl)NCCCl | -5 | 15 | 5 | 8 | – | – | – | –
4 | Cn1cnc([N+](=O)[O-])c1COP(=O)(NCCCl)NCCCl | -38 | 22 | 13 | 4 | – | – | – | –
5 | Cn1cc(COP(=O)(NCCBr)NCCBr)nc1[N+](=O)[O-] | -14 | 32 | 16 | 48 | – | – | – | –
6 | CCn1c(COP(=O)(NCCBr)NCCBr)cnc1[N+](=O)[O-] | -13 | 31 | 25 | 20 | – | – | – | –
7 | CCn1cnc([N+](=O)[O-])c1COP(=O)(NCCCl)NCCCl | -16 | 11 | 1 | -2 | – | – | – | –
8 | CC(C)n1cc(COP(=O)(NCCBr)NCCBr)nc1[N+](=O)[O-] | -16 | 68 | 30 | 68 | 90 | 32 | 41 | 90
9 | Cn1cnc([N+](=O)[O-])c1COP(=O)(NCCBr)NCCBr | -4 | 55 | 17 | 66 | – | 74 | 98 | –
10 | CC(C)n1cnc([N+](=O)[O-])c1COP(=O)(NCCBr)NCCBr | 4 | 47 | 16 | 41 | – | – | – | –
11 | CCCn1cc(COP(=O)(NCCBr)NCCBr)nc1[N+](=O)[O-] | -32 | 35 | 21 | 20 | – | – | – | –
12 | CC(C)n1c(COP(=O)(NCCBr)NCCBr)cnc1[N+](=O)[O-] | -15 | 23 | 24 | 10 | – | – | – | –
13 | Cn1c(COP(=O)(NCCBr)NCCBr)cnc1[N+](=O)[O-] [EVOFOSFAMIDE] | 10 | 68 | 9 | 65 | – | 62 | 61 | –
14 | CCn1cc(COP(=O)(NCCBr)NCCBr)nc1[N+](=O)[O-] | -3 | 43 | 25 | 32 | – | – | – | –
15 | CCn1cnc([N+](=O)[O-])c1COP(=O)(NCCBr)NCCBr | -11 | 39 | -3 | 59 | – | – | – | –
16 | CCCn1cnc([N+](=O)[O-])c1COP(=O)(NCCBr)NCCBr | 3 | 45 | -3 | 52 | – | – | – | –
